In PubChem BioAssay AID1919003 (Molecular Pharmacology Branch, DTP, NCI, 2023):
pIC50: −log10 of the molar value.

System: 786-0 complex spheroids with HUVEC/MSC, growth % test/control
Assay: Anticancer human tumor 786-0 cell line growth inhibition [AhR];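 also: compound exposure lasted seven days before the read-out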
Conditions: for pIC50: curve of first compound; for viability, T/C: stronger effect = lower value
Source text: Multicellular complex tumor spheroid response to aryl hydrocarbon receptor antagonists in combination with a variety of drugs and investigational agents in selected tumor cell lines
The current study was undertaken to assess response to aryl hydrocarbon receptor antagonists in combination with standard-of-care drugs and investigational agents in solid tumor complex spheroid models. Complex spheroids include a stromal component modeled by human endothelial cells (HUVEC) and fibroblasts modeled by human mesenchymal stem cells (MSCs). The concentration ranges selected for each drug and investigational agent were based upon clinically achievable concentrations if the clinical Cmax of the agent was known.
Compounds. The drugs and investigational agents: BAY 2416964 (NSC825713), GNF351 (NSC835774), CH-223191 (NSC835775), CPI-455 (NSC825282), aza-TdCyd (NSC777586), decitabine (NSC127716), belinostat (NSC758774), entinostat (NSC756642), pevonedistat (NSC761192), tazemetostat (NSC777109), talazoparib (NSC765396), olaparib (NSC753686), selinexor (NSC780203), nedisertib (M3814, NSC802822), bortezomib (NSC756655), venetoclax (NSC766270), doxorubicin (NSC123127), elimusertib (BAY189344, NSC800525), ceralasertib (AZD6738, NSC777638), TAK-243 (NSC785004), alisertib (NSC759677), etoposide (NSC141540), topotecan (NSC609699), eribulin (NSC707389), gemcitabine (NSC613327), carboplatin (NSC241240), cisplatin (NSC119875), and SN-38 (NSC673596) were obtained from the National Cancer Institute (NCI) Developmental Therapeutics Program Chemical Repository (32). The FDA-approved anticancer drug set is available from the Developmental Therapeutics Program at https://dtp.cancer.gov/organization/dscb/obtaining/available plates.htm. […] The stock solutions were prepared in dimethyl sulfoxide (DMSO, Sigma-Aldrich, St. Louis, MO, cat. D2650), except for the platinum compounds which were prepared in saline (Quality Biological, Gaithersburg, MD, cat. 114-055-101), at 800-fold the tested concentration and stored at -70 degrees C prior to their use. All drugs and investigational agents were tested over a range starting from a high concentration at or near the clinical Cmax and decreasing in half-log increments. If the clinical Cmax for an agent had not been determined, the highest concentration tested was 10 microM (Table 1).
Cell Culture. All cells were maintained in an incubator at 37 degrees C and 5% CO2 with 95% humidity. The PDC lines were cultured according to standard operating procedures established by the NCI PDMR (https://pdmr.cancer.gov). Briefly, all PDCs were thawed and cultured in Matrigel-coated flasks prepared with a working solution of 1X Ham's F-12 nutrient mix, without supplementation (Invitrogen, Waltham, MA, cat. 11765054), 100 U/mL penicillin-streptomycin (Invitrogen, cat. 15140122), and 2.5% Matrigel (Corning Inc., Corning, NY, cat. 354248) for the first three passages. All PDCs were cultured in complete DMEM/F-12 media containing advanced DMEM/F-12 (Invitrogen, cat. 12634028), 4.9% defined fetal bovine serum, heat inactivated (HyClone Laboratories Inc., Logan, UT, cat. SH30070.03HI), 389 ng/mL hydrocortisone (Sigma-Aldrich, cat. H4001), 9.7 ng/mL human EGF recombinant protein (Invitrogen, cat. PHG0313), 23.4 microg/mL adenine (Sigma-Aldrich, cat. A2786), 97.3 U/mL penicillin-streptomycin (Invitrogen, cat. 15140122), 1.9 mM L-glutamine (Invitrogen, cat. 25030081), and 9.7 microM Y-27632 dihydrochloride (Tocris Bioscience, Bristol, United Kingdom, cat. 1254). The PDCs were cultured in complete DMEM/F12 media without 10 microM Y-27632 dihydrochloride for at least two passages prior to the screen. The established cell lines NCI-H1341 and […] were cultured in DMEM/F-12, HEPES (Invitrogen, cat. 11330032), 5% defined fetal bovine serum (HyClone Laboratories Inc., cat. SH30070.03), ITS premix universal culture supplement [insulin (5 microg/mL), transferrin (5 microg/mL), and selenious acid (5 ng/mL)] […]

[1] = second compound 0.1 µM, first compound 0.0316 µM
[2] = second compound 0.1 µM, first compound 0.1 µM
[3] = second compound 0.1 µM, first compound 0.316 µM
[4] = second compound 0.1 µM, first compound 1 µM
[5] = second compound 0.1 µM, first compound 3.16 µM
[6] = second compound 0.1 µM, first compound 10 µM
[7] = second compound 0.316 µM, first compound 0.0316 µM
[8] = second compound 0.316 µM, first compound 0.1 µM
[9] = second compound 0.316 µM, first compound 0.316 µM
[10] = second compound 0.316 µM, first compound 1 µM
[11] = second compound 0.316 µM, first compound 3.16 µM
[12] = second compound 0.316 µM, first compound 10 µM
[13] = second compound 1 µM, first compound 0.0316 µM
[14] = second compound 1 µM, first compound 0.1 µM
[15] = second compound 1 µM, first compound 0.316 µM
[16] = second compound 1 µM, first compound 1 µM
[17] = second compound 1 µM, first compound 3.16 µM
[18] = second compound 1 µM, first compound 10 µM
[19] = second compound 3.16 µM, first compound 0.0316 µM
[20] = second compound 3.16 µM, first compound 0.1 µM
[21] = second compound 3.16 µM, first compound 0.316 µM
[22] = second compound 3.16 µM, first compound 1 µM
[23] = second compound 3.16 µM, first compound 3.16 µM
[24] = second compound 3.16 µM, first compound 10 µM
[25] = second compound 10 µM, first compound 0.0316 µM
[26] = second compound 10 µM, first compound 0.1 µM
[27] = second compound 10 µM, first compound 0.316 µM
[28] = second compound 10 µM, first compound 1 µM
[29] = second compound 10 µM, first compound 3.16 µM
[30] = second compound 10 µM, first compound 10 µM

Row | SMILES | pIC50 (second compound 0.1 µM) | pIC50 (second compound 0.316 µM) | pIC50 (second compound 1 µM) | pIC50 (second compound 3.16 µM) | pIC50 (second compound 10 µM) | viability, T/C [1] [%] | viability, T/C [2] [%] | viability, T/C [3] [%] | viability, T/C [4] [%] | viability, T/C [7] [%] | viability, T/C [8] [%] | viability, T/C [9] [%] | viability, T/C [10] [%] | viability, T/C [13] [%] | viability, T/C [14] [%] | viability, T/C [15] [%] | viability, T/C [16] [%] | viability, T/C [19] [%] | viability, T/C [20] [%] | viability, T/C [21] [%] | also measured
1 | COc1cc(C2c3cc4c(cc3C(OC3OC5COC(C)OC5C(O)C3O)C3COC(=O)C23)OCO4)cc(OC)c1O (stereo not given) + CC(CO)NC(=O)c1cc(-c2ccc(Cl)cc2)nn(-c2cnn(C)c2)c1=O | 6.22 | 6.29 | 6.37 | 6.63 | 6.59 | 89.7 | 82 | 74.2 | 29.7 | 66 | 72.5 | 69.1 | 24.9 | 79.1 | 94.9 | 58.7 | 20.2 | 83.7 | 65.6 | 44.8 | viability, T/C [5]: 18.8%; viability, T/C [6]: 5.08%; viability, T/C [11]: 13.1%; viability, T/C [12]: 6.05%; viability, T/C [17]: 16%; viability, T/C [18]: 4.53%; viability, T/C [22]: 24.4%; viability, T/C [23]: 17.5%; viability, T/C [24]: 5.67%; viability, T/C [25]: 88.3%; viability, T/C [26]: 78.8%; viability, T/C [27]: 40.2%; viability, T/C [28]: 22.2%; viability, T/C [29]: 13.9%; viability, T/C [30]: 3.72%
2 | COc1cccc2c1C(=O)c1c(O)c3c(c(O)c1C2=O)CC(O)(C(=O)CO)CC3OC1CC(N)C(O)C(C)O1 (stereo not given) + CC(CO)NC(=O)c1cc(-c2ccc(Cl)cc2)nn(-c2cnn(C)c2)c1=O | 7.37 | > 7.50 | 7.34 | > 7.50 | > 7.50 | 54.4 | 37.9 | 12.5 | 2.51 | 46.7 | 40 | 14.3 | 3.11 | 54.3 | 40.6 | 11.6 | 3.23 | 47.4 | 42.3 | 10.9 | viability, T/C [5]: 0.63%; viability, T/C [6]: 0.56%; viability, T/C [11]: 0.25%; viability, T/C [12]: 0.6%; viability, T/C [17]: 0.45%; viability, T/C [18]: 0.49%; viability, T/C [22]: 3.69%; viability, T/C [23]: 0.34%; viability, T/C [24]: 0.41%; viability, T/C [25]: 44.9%; viability, T/C [26]: 37.5%; viability, T/C [27]: 11.2%; viability, T/C [28]: 1.48%; viability, T/C [29]: 0.72%; viability, T/C [30]: 0.86%
3 | Nc1ncn(C2CC(O)C(CO)O2)c(=O)n1 (stereo not given) + CC(CO)NC(=O)c1cc(-c2ccc(Cl)cc2)nn(-c2cnn(C)c2)c1=O | < 6.00 | < 6.00 | < 6.00 | < 6.00 | < 6.00 | 72.4 | 75.3 | 75.3 | 62 | 75.3 | 62.1 | 57.9 | 55 | 88.6 | 72.1 | 65.3 | 61 | 93.8 | 91.2 | 77.7 | viability, T/C (second compound 0.1 µM, first compound 0.00316 µM): 96.2%; viability, T/C (second compound 0.1 µM, first compound 0.01 µM): 79.7%; viability, T/C (second compound 0.316 µM, first compound 0.00316 µM): 69%; viability, T/C (second compound 0.316 µM, first compound 0.01 µM): 66%; viability, T/C (second compound 1 µM, first compound 0.00316 µM): 82.4%; viability, T/C (second compound 1 µM, first compound 0.01 µM): 109%; viability, T/C (second compound 3.16 µM, first compound 0.00316 µM): 108%; viability, T/C (second compound 3.16 µM, first compound 0.01 µM): 94.1%; viability, T/C [22]: 64.3%; viability, T/C (second compound 10 µM, first compound 0.00316 µM): 116%; viability, T/C (second compound 10 µM, first compound 0.01 µM): 121%; viability, T/C [25]: 122%; viability, T/C [26]: 117%; viability, T/C [27]: 109%; viability, T/C [28]: 73.1%
